Converted amounts (≈) assume the structure as drawn.
Experiments:
Experiment in all cases: agar cup assay MIC
Assay type in all cases: cell-based
S. epidermis CK5 = conditions: Staphylococcus epidermidis
Source text: (§1) In vitro investigations have shown a significant potency of the compounds of the invention against a large number of bacteria including gram-positive and gram-negative strains (Staphyiococci, Streptococci, Corynebacteriae, Mycobacteriae, Proteus, Propionibacterium, Pseudomonas, Neisseriae, E. coli) and fungal strains (Candida and Aspergillus). […] In addition, the studies of post-antibiotic effects point towards a strong bactericidal effect of the compounds of the invention. […] Minimum Inhibitory Concentrations were estimated using an agar cup assay. Bacterial strains were obtained from the American Type Culture Collection or from our own collection of clinical isolates. Colonies from fresh overnight culture were resuspended in saline water to 0.5 MacFarland corresponding to 10^8 CFU/ml. 200 ml Mueller Hinton agar (Oxoid) at 48° C. was inoculated at a concentration of 10^6 CFU/ml and poured into square petri dishes (245×245 mm). Holes were made in the inoculated plates and 200 μl of the compounds to be tested were disposed into each hole. A dilution series of compounds contained six dilution between 0.25 and 125 μg/ml. For Streptococci Mueller Hinton agar was supplemented with 5% sheep blood. Plates were appropriately incubated and zone diameters of growth inhibition were measured using an electronic caliper. MICs were estimated using a linear regression curve between the zone diameter of growth inhibition and the log2 of the sample concentration. The microbiological assay set up is in agreement with the European Pharmacopoeia 3rd edition (1997). The inhibition zones are function of the concentration of the compounds used. Known antibiotics including fusidic acid (FA), mupirocin and linezolid were used as reference compounds.

[1] = tested on: Streptococcus faecium EI19; conditions: Enterococcus faecium; Streptococcus faecium EI19 (Penicillin resistant); agar with 5% sheep blood
Source text: as §1

S. aureus N6 = conditions: Staphylococcus aureus; S. aureus N6 (Fus. resistant)
Source text: as §1

S. aureus CJ247 = conditions: Staphylococcus aureus
Source text: as §1

Asbergillus niger ZM35 = conditions: Aspergillus niger
Source text: as §1

S. aureus CJ200 = conditions: Staphylococcus aureus
Source text: as §1

E. coli HA165 = conditions: Escherichia coli
Source text: as §1

[2] = tested on: Corynebacterium xerosis FF
Source text: as §1

S. aureus CJ234R = conditions: Staphylococcus aureus; S. aureus CJ234R (MRSA, Rifampicin resistant)
Source text: as §1

[3] = tested on: Propionibacterium acnes FN33; conditions: Cutibacterium acnes
Source text: as §1

[4] = tested on: Pseudomonas aeruginosa BA17
Source text: as §1

S. aureus CJ234F = conditions: Staphylococcus aureus; S. aureus CJ234F (MRSA, Fus. resistant)
Source text: as §1

Candida albicans ZA = tested on: Candida albicans ZA
Source text: as §1

[5] = tested on: Saccaromyces cervisiae ZZ7; conditions: Saccharomyces cerevisiae
Source text: as §1

[6] = tested on: Streptococcus pyogenes EC88; conditions: agar with 5% sheep blood
Source text: as §1

SMILES	MIC (S. epidermis CK5) [µg/mL]	MIC [1] [µg/mL]	MIC (S. aureus N6) [µg/mL]	MIC (S. aureus CJ247) [µg/mL]	MIC (Asbergillus niger ZM35) [µg/mL]	MIC (S. aureus CJ200) [µg/mL]	MIC (E. coli HA165) [µg/mL]	MIC [2] [µg/mL]	MIC (S. aureus CJ234R) [µg/mL]	MIC [3] [µg/mL]	MIC [4] [µg/mL]	MIC (S. aureus CJ234F) [µg/mL]	MIC (Candida albicans ZA) [µg/mL]	MIC [5] [µg/mL]	MIC [6] [µg/mL]
CC(C)CCCC(C(=O)NCCN(CCN)CCN)C1=C2C[C@@H](O)C3[C@@]4(C)CC[C@@H](O)[C@@H](C)C4CC[C@]3(C)[C@@]2(C)CC1 (stereo partly shown) [Compound 104, 21-N-{2′-[bis(2′-aminoethyl)amino]ethyl}-13(17)-en-17,20,24,25-tetrahydrofusidan-21-carboxamide]	16 (≈ 27.2 µM)	> 64	16 (≈ 27.2 µM)	16 (≈ 27.2 µM)	> 64	16 (≈ 27.2 µM)	> 64	16 (≈ 27.2 µM)	16 (≈ 27.2 µM)	16 (≈ 27.2 µM)	> 64	16 (≈ 27.2 µM)	16 (≈ 27.2 µM)	16 (≈ 27.2 µM)	16 (≈ 27.2 µM)
CC(=O)O[C@H]1C[C@@]2(C)[C@@H](C[C@@H](O)[C@H]3[C@@]4(C)CC[C@@H](O)[C@@H](C)[C@@H]4CC[C@@]32C)/C1=C(\CCC=C(C)C)C(=O)O [FA, fusidic acid, reference compound]	0.02 (≈ 0.0387 µM)	–	16 (≈ 31 µM)	0.02 (≈ 0.0387 µM)	> 64	0.02 (≈ 0.0387 µM)	> 64	0.1 (≈ 0.194 µM)	0.02 (≈ 0.0387 µM)	0.2 (≈ 0.387 µM)	> 64	16 (≈ 31 µM)	> 64	> 64	16 (≈ 31 µM)
C/C(=C\C(=O)OCCCCCCCCC(=O)O)C[C@@H]1OC[C@H](C[C@@H]2O[C@H]2[C@@H](C)[C@H](C)O)[C@@H](O)[C@H]1O [Mupirocin, mupirocin, reference compound]	0.04 (≈ 0.0799 µM)	–	–	0.5 (≈ 0.999 µM)	–	1 (≈ 2 µM)	–	–	1 (≈ 2 µM)	–	–	0.5 (≈ 0.999 µM)	–	–	1 (≈ 2 µM)
C[C@H](C(=O)NCCCN(CCCN)CCCN)[C@H]1CC[C@H]2[C@@H]3CC=C4C[C@@H](O)CC[C@]4(C)[C@H]3CC[C@]12C [Compound 114, 22-N-{3′-[bis(3′-aminopropyl)amino]propyl}-23,24-bisnor-5-cholenic-22-amide]	16 (≈ 31 µM)	–	16 (≈ 31 µM)	16 (≈ 31 µM)	–	16 (≈ 31 µM)	16 (≈ 31 µM)	64 (≈ 124 µM)	16 (≈ 31 µM)	16 (≈ 31 µM)	> 125	16 (≈ 31 µM)	> 125	64 (≈ 124 µM)	64 (≈ 124 µM)
CC(=O)O[C@H]1C[C@@]2(C)C(C[C@@H](O)C3[C@@]4(C)CC[C@@H](OC(C)=O)[C@@H](C)C4CC[C@@]32C)[C@@H]1[C@H](CCCC(C)C)C(=O)NCCCN(CCCN)CCCN (stereo partly shown) [Compound 115]	4 (≈ 5.46 µM)	–	–	–	125 (≈ 171 µM)	4 (≈ 5.46 µM)	16 (≈ 21.8 µM)	64 (≈ 87.3 µM)	4 (≈ 5.46 µM)	4 (≈ 5.46 µM)	16 (≈ 21.8 µM)	–	16 (≈ 21.8 µM)	16 (≈ 21.8 µM)	4 (≈ 5.46 µM)
CC(=O)NC[C@H]1CN(c2ccc(N3CCOCC3)c(F)c2)C(=O)O1 [Linezolid, linezolid, reference compound]	0.25 (≈ 0.741 µM)	–	–	1 (≈ 2.96 µM)	–	4 (≈ 11.9 µM)	–	–	16 (≈ 47.4 µM)	1 (≈ 2.96 µM)	–	1 (≈ 2.96 µM)	–	–	4 (≈ 11.9 µM)
CC(C)CCCC(C(=O)NCCCN(CCCN)CCCN)[C@H]1CC[C@@]2(C)C1CCC1[C@@]3(C)CC[C@@H](O)[C@@H](C)C3CC[C@@]12C (stereo partly shown) [Compound 117, 21-N-{3′-[bis(3′-aminopropyl)amino]propyl}-1-11-desoxy-16-desacetoxy-17S,20,24,25-tetrahydrofusid-21-amide]	1 (≈ 1.62 µM)	–	1 (≈ 1.62 µM)	1 (≈ 1.62 µM)	–	1 (≈ 1.62 µM)	–	0.25 (≈ 0.405 µM)	1 (≈ 1.62 µM)	–	–	1 (≈ 1.62 µM)	–	–	–
CC(=O)O[C@H]1C[C@@]2(C)C(CCC3[C@@]4(C)CC[C@@H](OS(=O)(=O)O)[C@@H](C)C4CC[C@@]32C)[C@@H]1[C@H](CCCC(C)C)C(=O)NCCN(CCN)CCN (stereo partly shown) [Compound 111, 21-N-{2′-[bis(2′-aminoethyl)amino]ethyl}-3-OSO3-11-desoxy-17,20,24,25-tetrahydro-fusid-21-amide]	4 (≈ 5.61 µM)	–	–	–	64 (≈ 89.8 µM)	16 (≈ 22.4 µM)	16 (≈ 22.4 µM)	16 (≈ 22.4 µM)	16 (≈ 22.4 µM)	4 (≈ 5.61 µM)	> 125	16 (≈ 22.4 µM)	125 (≈ 175 µM)	64 (≈ 89.8 µM)	16 (≈ 22.4 µM)
CC(=O)O[C@H]1C[C@@]2(C)C(CCC3[C@@]4(C)CC[C@@H](OS(=O)(=O)O)[C@@H](C)C4CC[C@@]32C)[C@@H]1[C@H](CCCC(C)C)C(=O)NCCCN(CCCN)CCCN (stereo partly shown) [Compound 116]	4 (≈ 5.3 µM)	–	–	–	64 (≈ 84.8 µM)	4 (≈ 5.3 µM)	64 (≈ 84.8 µM)	4 (≈ 5.3 µM)	4 (≈ 5.3 µM)	16 (≈ 21.2 µM)	125 (≈ 166 µM)	4 (≈ 5.3 µM)	64 (≈ 84.8 µM)	16 (≈ 21.2 µM)	16 (≈ 21.2 µM)
CC(=O)O[C@H]1C[C@@]2(C)C(CC=C3[C@]2(C)CCC2[C@H](C)[C@H](O)CC[C@]32C)[C@@H]1[C@H](CCCC(C)C)C(=O)NCCN(CCN)CCN (stereo partly drawn) [Compound 106, 21-N-{2′-[bis(2′-aminoethyl)amino]ethyl}-9(11)-en-17R,20S,24,25-tetrahydrofusid-21-amide]	4 (≈ 6.34 µM)	16 (≈ 25.4 µM)	4 (≈ 6.34 µM)	4 (≈ 6.34 µM)	63 (≈ 99.8 µM)	–	16 (≈ 25.4 µM)	4 (≈ 6.34 µM)	4 (≈ 6.34 µM)	4 (≈ 6.34 µM)	16 (≈ 25.4 µM)	4 (≈ 6.34 µM)	16 (≈ 25.4 µM)	16 (≈ 25.4 µM)	4 (≈ 6.34 µM)
CC(C)CCCC(C(=O)NCCN(CCN)CCN)[C@H]1CC[C@@]2(C)C1CCC1[C@@]3(C)CC[C@@H](O)[C@@H](C)C3CC[C@@]12C (stereo partly shown) [Compound 112, 21-N-{2′-[bis(2′-aminoethyl)amino]ethyl}-11-desoxy-16-desacetoxy-17S,20,24,25-tetrahydrofusid-21-amide]	1 (≈ 1.74 µM)	–	1 (≈ 1.74 µM)	1 (≈ 1.74 µM)	–	1 (≈ 1.74 µM)	–	0.25 (≈ 0.435 µM)	1 (≈ 1.74 µM)	–	–	1 (≈ 1.74 µM)	–	–	–

Reference: patent US20050256093A1, “Branched polyamine steroid derivatives” (Leo Pharma, priority 2002, published 2005)
